# Active and inactive are the calls of the source. No rule for the calls is given here.
# Tested on: CCRIS mutagenicity, Ames/micronucleus/aberration tests
# Test: CCRIS mutagenicity studies
# [1] = Test System: AMES SALMONELLA TYPHIMURIUM, Strain/Indicator: TA98, Metabolic Activation: NONE, Method: STANDARD PLATE
# [2] = Test System: AMES SALMONELLA TYPHIMURIUM, Strain/Indicator: TA100, Metabolic Activation: NONE, Method: STANDARD PLATE
# [3] = Test System: AMES SALMONELLA TYPHIMURIUM, Strain/Indicator: TA98, Metabolic Activation: NONE, Method: PREINCUBATION
# [4] = Test System: AMES SALMONELLA TYPHIMURIUM, Strain/Indicator: TA98, Metabolic Activation: RAT, LIVER, S-9, AROCLOR 1254, Method: STANDARD PLATE
# [5] = Test System: AMES SALMONELLA TYPHIMURIUM, Strain/Indicator: TA100, Metabolic Activation: NONE, Method: PREINCUBATION
# [6] = Test System: AMES SALMONELLA TYPHIMURIUM, Strain/Indicator: TA100, Metabolic Activation: RAT, LIVER, S-9, AROCLOR 1254, Method: STANDARD PLATE
compound,measurement,setting,value
CC(=O)Nc1ccc(Oc2ccc(N)cc2)cc1,mutagenic call,[1],inactive; negative
same,mutagenic call,"Test System: AMES SALMONELLA TYPHIMURIUM, Strain/Indicator: TA98, Metabolic Activation: RAT, LIVER, S-9, PCB, Method: STANDARD PLATE",active; positive
same,mutagenic call,[2],inactive; negative
same,mutagenic call,"Test System: AMES SALMONELLA TYPHIMURIUM, Strain/Indicator: TA100, Metabolic Activation: RAT, LIVER, S-9, PCB, Method: STANDARD PLATE",active; positive
CCCCCCCCCCCCCC(=O)ON(C(=O)CCCCCCCCCCCCC)c1ccc2c(c1)Cc1ccccc1-2,mutagenic call,"Test System: UDS HUMAN FIBROBLASTS, Strain/Indicator: THY INCORP (NON-S-PHASE), Metabolic Activation: NONE, Method: AUTORADIOGRAPHY",active; positive
Cc1cc2ccccc2c2ccc3ccccc3c12,mutagenic call,"End Point: Chinese hamster lung fibroblasts, Strain/Indicator: V79MZ/HPRT/6-Thioguanidine, Metabolic Activation: Stably transfected human CYP1A1 (hCYP1A1), Method: Preincubation",active; positive. highly potent. protection against mutagenicity by human glutathione s-
same,mutagenic call,"End Point: Chinese hamster lung fibroblasts, Strain/Indicator: V79MZ/HPRT/6-Thioguanidine, Metabolic Activation: Stably transfected human CYP1B1 (hCYP1B1), Method: Preincubation",active; positive. highly potent. protection against mutagenicity by human glutathione s-
same,mutagenic call,[3],inactive; negative
same,mutagenic call,[4],active; positive
same,mutagenic call,"Test System: AMES SALMONELLA TYPHIMURIUM, Strain/Indicator: TA98, Metabolic Activation: RAT, LIVER, S-9, Method: PREINCUBATION",active; positive
same,mutagenic call,[5],inactive; negative
same,mutagenic call,[2],inactive; negative
same,mutagenic call,"Test System: AMES SALMONELLA TYPHIMURIUM, Strain/Indicator: TA100, Metabolic Activation: RAT, LIVER, MICROSOMES, 5-METHYLCHRYSENE, Method: STANDARD PLATE",inactive; negative
same,mutagenic call,"Test System: AMES SALMONELLA TYPHIMURIUM, Strain/Indicator: TA100, Metabolic Activation: RAT, LIVER, MICROSOMES, AROCLOR 1254, Method: STANDARD PLATE",active; positive
same,mutagenic call,"Test System: AMES SALMONELLA TYPHIMURIUM, Strain/Indicator: TA100, Metabolic Activation: RAT, LIVER, MICROSOMES, Method: STANDARD PLATE",inactive; negative
same,mutagenic call,[6],active; positive
same,mutagenic call,"Test System: AMES SALMONELLA TYPHIMURIUM, Strain/Indicator: TA100, Metabolic Activation: RAT, LIVER, S-9, Method: PREINCUBATION",active; positive
Nc1cc(N)cc(Cl)c1,mutagenic call,"End Point: IN VITRO CHROMOSOMAL ABERRATIONS, Test System: CHL CELLS, Metabolic Activation: RAT, LIVER, S-9, SODIUM PHENOBARBITAL AND 5,6-BENZOFLAVONE",active; positive (structural changes)
same,mutagenic call,"Test System: UDS RODENT HEPATOCYTES, Strain/Indicator: THY INCORP (NON-S-PHASE), Metabolic Activation: NONE, Method: AUTORADIOGRAPHY",active; positive
CC1(C)CCC[C@]2(C)[C@@H](C=O)C(C=O)=CC[C@@H]12,mutagenic call,[1],inactive; negative
same,mutagenic call,[2],inactive; negative
same,mutagenic call,"Test System: AMES SALMONELLA TYPHIMURIUM, Strain/Indicator: TA2637, Metabolic Activation: NONE, Method: STANDARD PLATE",inactive; negative
same,mutagenic call,"Test System: CHINESE HAMSTER V-79, Strain/Indicator: V-79/6-THIOGUANINE (HGPRT), Metabolic Activation: NONE",inactive; negative
CCSc1cc(Cc2ccc(N)c(SCC)c2)ccc1N,mutagenic call,[3],inactive; negative
same,mutagenic call,"Test System: AMES SALMONELLA TYPHIMURIUM, Strain/Indicator: TA98, Metabolic Activation: RAT, LIVER, S-9, PCB, Method: PREINCUBATION",active; positive
same,mutagenic call,[5],inactive; negative
same,mutagenic call,"Test System: AMES SALMONELLA TYPHIMURIUM, Strain/Indicator: TA100, Metabolic Activation: RAT, LIVER, S-9, PCB, Method: PREINCUBATION",active; positive
CCOCOCC,mutagenic call,"Test System: AMES SALMONELLA TYPHIMURIUM, Strain/Indicator: TA98, Metabolic Activation: HAMSTER, LIVER, S-9, AROCLOR 1254, Method: STANDARD PLATE",inactive; negative
same,mutagenic call,[1],inactive; negative
same,mutagenic call,[4],inactive; negative
same,mutagenic call,"Test System: AMES SALMONELLA TYPHIMURIUM, Strain/Indicator: TA100, Metabolic Activation: HAMSTER, LIVER, S-9, AROCLOR 1254, Method: STANDARD PLATE",inactive; negative
same,mutagenic call,[2],inactive; negative
same,mutagenic call,[6],inactive; negative
same,mutagenic call,"Test System: AMES SALMONELLA TYPHIMURIUM, Strain/Indicator: TA1535, Metabolic Activation: HAMSTER, LIVER, S-9, AROCLOR 1254, Method: STANDARD PLATE",inactive; negative
same,mutagenic call,"Test System: AMES SALMONELLA TYPHIMURIUM, Strain/Indicator: TA1535, Metabolic Activation: NONE, Method: STANDARD PLATE",inactive; negative
same,mutagenic call,"Test System: AMES SALMONELLA TYPHIMURIUM, Strain/Indicator: TA1535, Metabolic Activation: RAT, LIVER, S-9, AROCLOR 1254, Method: STANDARD PLATE",inactive; negative
same,mutagenic call,"Test System: AMES SALMONELLA TYPHIMURIUM, Strain/Indicator: TA1537, Metabolic Activation: HAMSTER, LIVER, S-9, AROCLOR 1254, Method: STANDARD PLATE",inactive; negative
same,mutagenic call,"Test System: AMES SALMONELLA TYPHIMURIUM, Strain/Indicator: TA1537, Metabolic Activation: NONE, Method: STANDARD PLATE",inactive; negative
same,mutagenic call,"Test System: AMES SALMONELLA TYPHIMURIUM, Strain/Indicator: TA1537, Metabolic Activation: RAT, LIVER, S-9, AROCLOR 1254, Method: STANDARD PLATE",inactive; negative
same,mutagenic call,"Test System: AMES SALMONELLA TYPHIMURIUM, Strain/Indicator: TA1538, Metabolic Activation: HAMSTER, LIVER, S-9, AROCLOR 1254, Method: STANDARD PLATE",inactive; negative
same,mutagenic call,"Test System: AMES SALMONELLA TYPHIMURIUM, Strain/Indicator: TA1538, Metabolic Activation: NONE, Method: STANDARD PLATE",inactive; negative
same,mutagenic call,"Test System: AMES SALMONELLA TYPHIMURIUM, Strain/Indicator: TA1538, Metabolic Activation: RAT, LIVER, S-9, AROCLOR 1254, Method: STANDARD PLATE",inactive; negative
same,mutagenic call,"Test System: MOUSE LYMPHOMA, Strain/Indicator: L5178Y (TK+/TK-), Metabolic Activation: NONE, Method: SUSPENSION/PLATE",inactive; negative. reevaluation of results: negative
same,mutagenic call,"Test System: MOUSE LYMPHOMA, Strain/Indicator: L5178Y (TK+/TK-), Metabolic Activation: RAT, LIVER, S-9, AROCLOR 1254, Method: SUSPENSION/PLATE",active; positive. reevaluation of results: positive
C/C(=C(\CCOC(=O)c1ccccc1)SC(=O)c1ccccc1)N(C=O)Cc1cnc(C)nc1N,mutagenic call,"Test System: AMES SALMONELLA TYPHIMURIUM, Strain/Indicator: TA97, Metabolic Activation: NONE, Method: PREINCUBATION",inactive; negative
same,mutagenic call,"Test System: AMES SALMONELLA TYPHIMURIUM, Strain/Indicator: TA97, Metabolic Activation: RAT, LIVER, S-9, AROCLOR 1254, Method: PREINCUBATION",inactive; negative
same,mutagenic call,"Test System: AMES SALMONELLA TYPHIMURIUM, Strain/Indicator: TA102, Metabolic Activation: NONE, Method: PREINCUBATION",inactive; negative
same,mutagenic call,"Test System: AMES SALMONELLA TYPHIMURIUM, Strain/Indicator: TA102, Metabolic Activation: RAT, LIVER, S-9, AROCLOR 1254, Method: PREINCUBATION",inactive; negative
O=C(O)c1c(Cl)cccc1Cl,mutagenic call,[3],inactive; negative
same,mutagenic call,"Test System: AMES SALMONELLA TYPHIMURIUM, Strain/Indicator: TA98, Metabolic Activation: RAT LIVER S-9, PCB, Method: PREINCUBATION",inactive; negative
same,mutagenic call,[5],inactive; negative
same,mutagenic call,"Test System: AMES SALMONELLA TYPHIMURIUM, Strain/Indicator: TA100, Metabolic Activation: RAT LIVER S-9, PCB, Method: PREINCUBATION",inactive; negative
same,mutagenic call,"Test System: AMES SALMONELLA TYPHIMURIUM, Strain/Indicator: TA104, Metabolic Activation: NONE, Method: PREINCUBATION",inactive; negative
same,mutagenic call,"Test System: AMES SALMONELLA TYPHIMURIUM, Strain/Indicator: TA104, Metabolic Activation: RAT LIVER S-9, PCB, Method: PREINCUBATION",inactive; negative
same,mutagenic call,"Test System: E.COLI, Strain/Indicator: WP2 UVRA, Metabolic Activation: NONE, Method: PREINCUBATION",inactive; negative
same,mutagenic call,"Test System: E.COLI, Strain/Indicator: WP2 UVRA, Metabolic Activation: RAT LIVER S-9, PCB, Method: PREINCUBATION",inactive; negative
